Measurements: ChEMBL document CHEMBL1811766, “Structure-activity relationship studies of novel pyrazole and imidazole carboxamides as cannabinoid-1 (CB1) antagonists” (Bioorg Med Chem Lett, 2011)

Each compound was assayed against Cannabinoid receptor 1 (Rattus norvegicus, UniProt P20272) (assay: Displacement of [3H]SR141716A from rat brain CB1 receptor at pH 7.4 after 1 hr by liquid scintillation counting). Settings: not given.
Cannabinoid receptor 1, sequence (P20272 whole entry): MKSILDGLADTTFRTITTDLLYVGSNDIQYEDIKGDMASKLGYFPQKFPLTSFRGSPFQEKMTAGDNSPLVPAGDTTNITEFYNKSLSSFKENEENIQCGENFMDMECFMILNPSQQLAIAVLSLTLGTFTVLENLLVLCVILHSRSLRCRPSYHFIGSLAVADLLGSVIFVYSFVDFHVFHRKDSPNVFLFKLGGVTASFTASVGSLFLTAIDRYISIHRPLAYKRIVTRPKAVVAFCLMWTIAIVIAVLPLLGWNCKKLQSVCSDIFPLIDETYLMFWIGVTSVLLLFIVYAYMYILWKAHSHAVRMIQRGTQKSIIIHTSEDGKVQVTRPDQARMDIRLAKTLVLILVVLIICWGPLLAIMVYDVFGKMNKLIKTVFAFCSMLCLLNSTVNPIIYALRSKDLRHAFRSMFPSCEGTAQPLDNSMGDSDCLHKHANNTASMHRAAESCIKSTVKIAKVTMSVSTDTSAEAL

First: Cc1c(C(=O)NC(C)(C)c2nnnn2C)nn(-c2ccc(Cl)cc2Cl)c1-c1ccc(Cl)cc1
Second: CCc1c(C(=O)NC(C)(C)c2nnnn2C)nn(-c2ccc(Cl)cc2Cl)c1-c1ccc(Cl)cc1
The IC50 of the first is 290-fold higher: 0.145 µM for the first, 0.0005 µM for the second. The second is the more potent here.

Compared with `CCC(C)(NC(=O)c1nn(-c2ccc(Cl)cc2Cl)c(-c2ccc(Cl)cc2)c1C)c1noc(C(F)(F)F)n1` (centres undefined), `Cc1c(C(=O)NC(C)(C)c2noc(C(F)(F)F)n2)nn(-c2ccc(Cl)cc2Cl)c1-c1ccc(Cl)cc1` is 2-fold lower in IC50: 0.006 µM for the first, 0.003 µM for the second.

Going from `CCOC(=O)c1sc(C(C)(C)NC(=O)c2nn(-c3ccc(Cl)cc3Cl)c(-c3ccc(Cl)cc3)c2C)nc1C` to `CCOC(=O)Cc1csc(C(C)(C)NC(=O)c2nn(-c3ccc(Cl)cc3Cl)c(-c3ccc(Cl)cc3)c2C)n1`, the IC50 falls from 0.022 µM to 0.01 µM (2.2-fold). The second is the more potent here.

Going from `CCc1c(C(=O)NC(C)(C)c2nnnn2C)nn(-c2ccc(Cl)cc2Cl)c1-c1ccc(C#N)cc1` to `CCc1c(C(=O)NC(C)(C)c2nnnn2C)nn(-c2ccc(Cl)cc2Cl)c1-c1ccc(Br)cc1`, the IC50 falls from 0.022 µM to 0.0001 µM (220-fold).

Compared with `CCOC(=O)c1c(C(=O)NC2(c3noc(C(F)(F)F)n3)CC2)nn(-c2ccc(Cl)cc2Cl)c1-c1ccc(Cl)cc1`, `CC(C)(NC(=O)c1nn(-c2ccc(Cl)cc2Cl)c(-c2ccc(Cl)cc2)c1CO)c1noc(C(F)(F)F)n1` is 2.5-fold lower in IC50: 0.001 µM for the first, 0.0004 µM for the second.

First: CCCS(=O)(=O)Oc1ccc(-c2c(C)c(C(=O)NC(C)(C)c3nnnn3C)nn2-c2ccc(Cl)cc2Cl)cc1
Second: CCc1c(C(=O)NC(C)(C)c2nnnn2C)nn(-c2ccc(Cl)cc2Cl)c1-c1ccc(OC)cc1
The IC50 of the first is 4.5-fold lower: 0.0011 µM for the first, 0.005 µM for the second. The first is the more potent here.

First: Cc1c(C(=O)NC(C)(C)c2nnc(C(F)(F)F)o2)nn(-c2ccc(Cl)cc2Cl)c1-c1ccc(Cl)cc1
Second: CC(C)(NC(=O)c1cn(-c2ccc(Cl)cc2Cl)c(-c2ccc(Cl)cc2)n1)c1nnc(C(F)(F)F)o1
The IC50 of the first is 2.2-fold lower: 0.006 µM for the first, 0.013 µM for the second.

Going from `Cc1csc(C(C)(C)NC(=O)c2nn(-c3ccc(Cl)cc3Cl)c(-c3ccc(Cl)cc3)c2C)n1` to `Cc1c(C(=O)NC(C)(C)c2nc(C(F)(F)F)cs2)nn(-c2ccc(Cl)cc2Cl)c1-c1ccc(Cl)cc1`, the IC50 falls from 0.015 µM to 0.002 µM (7.5-fold).

`CCc1c(C(=O)NC(C)(C)c2nnnn2C)nc(-c2ccc(Cl)cc2Cl)n1-c1ccc(Cl)cc1` and `CCc1c(C(=O)NC(C)(C)c2nnn(C)n2)nn(-c2ccc(Cl)cc2Cl)c1-c1ccc(Cl)cc1` are within 1.5-fold of each other in IC50: 0.036 µM for the first, 0.039 µM for the second.

First: Cn1nnnc1C(C)(C)NC(=O)c1nn(-c2ccc(Cl)cc2Cl)c2c1CCCc1cc(Cl)ccc1-2
Second: Cc1ncc(C(C)(C)NC(=O)c2nn(-c3ccc(Cl)cc3Cl)c(-c3ccc(Cl)cc3)c2C)s1
The IC50 of the first is 2.6-fold higher: 0.031 µM for the first, 0.012 µM for the second. The second is the more potent here.

Compared with `Cc1c(C(=O)NC(C)(C)c2cn3cc(C(F)(F)F)ccc3n2)nn(-c2ccc(Cl)cc2Cl)c1-c1ccc(Cl)cc1`, `Cc1c(C(=O)NC(C)(C)c2cn3ccsc3n2)nn(-c2ccc(Cl)cc2Cl)c1-c1ccc(Cl)cc1` is 5.7-fold lower in IC50: 0.063 µM for the first, 0.011 µM for the second. The second is the more potent here.

The compounds below were run against Cannabinoid receptor 2 (Homo sapiens) (UniProt P34972) (assay: Displacement of [3H]CP55940 from human cannabinoid CB2 receptor expressed in CHO cells at 1 uM at pH 7.4 after 1 hr by liquid scintillation counting). Settings: not given.
Format: cell-based

Cannabinoid receptor 2 (Homo sapiens), sequence (P34972 whole entry): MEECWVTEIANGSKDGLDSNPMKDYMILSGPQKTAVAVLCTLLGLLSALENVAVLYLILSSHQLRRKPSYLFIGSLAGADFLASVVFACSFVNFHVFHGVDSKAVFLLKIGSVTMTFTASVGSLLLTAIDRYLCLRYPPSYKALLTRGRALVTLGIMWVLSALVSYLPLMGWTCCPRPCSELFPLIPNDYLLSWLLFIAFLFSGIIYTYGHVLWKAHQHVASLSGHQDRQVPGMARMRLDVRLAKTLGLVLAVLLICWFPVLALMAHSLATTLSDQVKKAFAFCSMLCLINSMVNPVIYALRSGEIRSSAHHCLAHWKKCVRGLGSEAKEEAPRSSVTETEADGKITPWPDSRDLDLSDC

Compared with `Cc1c(C(=O)NC(C)(C)c2nnc(C(F)(F)F)o2)nn(-c2ccc(Cl)cc2Cl)c1-c1ccc(Cl)cc1`, `CC(C)(NC(=O)c1nn(-c2ccc(Cl)cc2Cl)c(-c2ccc(Cl)cc2)c1CO)c1noc(C(F)(F)F)n1` is lower in inhibition: 64% for the first, 34% for the second.

Compared with `CCc1c(C(=O)NC(C)(C)c2nnnn2C)nn(-c2ccc(Cl)cc2Cl)c1-c1ccc(Br)cc1`, `CCc1c(C(=O)NC(C)(C)c2nnnn2C)nn(-c2ccc(Cl)cc2Cl)c1-c1ccc(Cl)cc1` is lower in inhibition: 27% for the first, 16% for the second.

Each compound was assayed against T1, hERG (KCNH2) (Homo sapiens, UniProt Q12809) (assay: Inhibition of human ERG expressed in HEK293 cells assessed as inhibition of potassium channel current at 10 uM after 5 mins by patch clamp assay). Settings: HEK293 cells expressing human ERG.
Format: cell-based

T1 sequence (Q12809 whole entry): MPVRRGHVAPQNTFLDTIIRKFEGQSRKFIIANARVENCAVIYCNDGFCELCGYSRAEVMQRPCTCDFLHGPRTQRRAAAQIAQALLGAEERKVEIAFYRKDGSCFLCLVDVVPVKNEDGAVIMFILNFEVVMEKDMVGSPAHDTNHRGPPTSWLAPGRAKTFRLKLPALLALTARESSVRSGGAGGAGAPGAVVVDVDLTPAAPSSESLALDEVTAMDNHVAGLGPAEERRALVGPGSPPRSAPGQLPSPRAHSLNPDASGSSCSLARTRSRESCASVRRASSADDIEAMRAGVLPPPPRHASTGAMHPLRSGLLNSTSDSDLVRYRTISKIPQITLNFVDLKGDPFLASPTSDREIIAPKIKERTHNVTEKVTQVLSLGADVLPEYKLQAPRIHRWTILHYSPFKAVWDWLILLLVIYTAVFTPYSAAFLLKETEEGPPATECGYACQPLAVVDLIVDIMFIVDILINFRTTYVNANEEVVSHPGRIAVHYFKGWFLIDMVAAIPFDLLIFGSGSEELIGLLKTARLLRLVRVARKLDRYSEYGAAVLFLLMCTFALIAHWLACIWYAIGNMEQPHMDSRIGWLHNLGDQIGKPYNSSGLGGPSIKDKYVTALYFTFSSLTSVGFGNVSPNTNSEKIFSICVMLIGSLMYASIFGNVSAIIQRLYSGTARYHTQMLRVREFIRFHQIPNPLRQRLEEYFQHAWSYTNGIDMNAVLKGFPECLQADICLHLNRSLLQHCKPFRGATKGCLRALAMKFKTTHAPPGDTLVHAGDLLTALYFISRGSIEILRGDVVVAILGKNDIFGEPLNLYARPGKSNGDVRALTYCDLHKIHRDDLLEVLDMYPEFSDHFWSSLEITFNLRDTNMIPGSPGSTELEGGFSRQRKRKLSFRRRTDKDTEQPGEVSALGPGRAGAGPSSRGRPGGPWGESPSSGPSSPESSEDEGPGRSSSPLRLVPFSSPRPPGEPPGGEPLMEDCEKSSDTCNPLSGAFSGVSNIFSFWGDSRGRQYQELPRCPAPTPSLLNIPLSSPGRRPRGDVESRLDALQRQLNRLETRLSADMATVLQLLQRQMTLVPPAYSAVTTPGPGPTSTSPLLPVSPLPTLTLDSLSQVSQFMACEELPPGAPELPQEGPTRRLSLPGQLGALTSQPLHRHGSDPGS

`CCc1c(C(=O)NC(C)(C)c2nnnn2C)nn(-c2ccc(Cl)cc2Cl)c1-c1ccc(Cl)cc1` was tested, and the inhibition at 5 min, 10 µM was 59.7%.

These compounds were tested against Voltage-gated inwardly rectifying potassium channel KCNH2 (Homo sapiens, UniProt Q12809) (assay: Inhibition of human ERG expressed in HEK293 cells assessed as inhibition of potassium channel current after 5 mins by patch clamp assay). Settings: not given.
Format: cell-based

Voltage-gated inwardly rectifying potassium channel KCNH2, sequence (Q12809 whole entry): as above

Going from `CC(C)(NC(=O)c1nn(-c2ccc(Cl)cc2Cl)c(-c2ccc(Cl)cc2)c1CO)c1noc(C(F)(F)F)n1` to `CCc1c(C(=O)NC(C)(C)c2nnnn2C)nn(-c2ccc(Cl)cc2Cl)c1-c1ccc(Br)cc1`, the IC50 falls from over 30 µM to 22.7 µM.

Each compound was assayed on Mus musculus (assay: Inhibition of WIN-55212 induced hypothermia in Swiss albino mouse assessed as change temperature at 10 mg/kg, po administered 30 mins after WIN55212 challenge measured after 30 mins). Settings: 0.5 h.
Format: functional

`Cc1c(C(=O)NC(C)(C)c2nnc(C(F)(F)F)o2)nn(-c2ccc(Cl)cc2Cl)c1-c1ccc(Cl)cc1` and `CC(C)(NC(=O)c1nn(-c2ccc(Cl)cc2Cl)c(-c2ccc(Cl)cc2)c1CO)c1noc(C(F)(F)F)n1` are the same in inhibition in vivo at 10 mg/kg: 97% for the first, 97% for the second.

Compared with `CCc1c(C(=O)NC(C)(C)c2nnnn2C)nn(-c2ccc(Cl)cc2Cl)c1-c1ccc(Br)cc1`, `CCc1c(C(=O)NC(C)(C)c2nnnn2C)nn(-c2ccc(Cl)cc2Cl)c1-c1ccc(Cl)cc1` is higher in inhibition in vivo at 10 mg/kg: 83% for the first, 96% for the second.

These compounds were tested against T1, hERG (KCNH2) (assay: Inhibition of human ERG expressed in HEK293 cells assessed as inhibition of potassium channel current at 30 uM after 5 mins by patch clamp assay). Settings: HEK293 cells expressing human ERG.
Format: cell-based

Work on `CC(C)(NC(=O)c1nn(-c2ccc(Cl)cc2Cl)c(-c2ccc(Cl)cc2)c1CO)c1noc(C(F)(F)F)n1` yielded an inhibition at 5 min, 30 µM of 38.9%.
